Measurements: patent publication US5741798A, “2-benzyl-4-sulfonyl-4H-isoquinolin-1,3-diones and their use as antiinflammatory agents” (priority 1997, dated 1998)
Where two headings read alike, the source gives them in different places.

Experiments:
human recombinant COX-1 = molecular target: T1, human recombinant COX-1 (Homo sapiens, UniProt P23219); experiment: COX-1 inhibition, COS cell assay; type: cell-based; settings: for inhibition at 1 µM / inhibition at 10 µM / inhibition at 0.1 µM: COS, read-out: Inhibition of COX Enzymes in COS Cell Assays, COX-1 % inhibition
T1 construct: expressed in transfected cells; host or cells: Cos-A2 cells, stably transfected
T1 sequence (P23219 24-599): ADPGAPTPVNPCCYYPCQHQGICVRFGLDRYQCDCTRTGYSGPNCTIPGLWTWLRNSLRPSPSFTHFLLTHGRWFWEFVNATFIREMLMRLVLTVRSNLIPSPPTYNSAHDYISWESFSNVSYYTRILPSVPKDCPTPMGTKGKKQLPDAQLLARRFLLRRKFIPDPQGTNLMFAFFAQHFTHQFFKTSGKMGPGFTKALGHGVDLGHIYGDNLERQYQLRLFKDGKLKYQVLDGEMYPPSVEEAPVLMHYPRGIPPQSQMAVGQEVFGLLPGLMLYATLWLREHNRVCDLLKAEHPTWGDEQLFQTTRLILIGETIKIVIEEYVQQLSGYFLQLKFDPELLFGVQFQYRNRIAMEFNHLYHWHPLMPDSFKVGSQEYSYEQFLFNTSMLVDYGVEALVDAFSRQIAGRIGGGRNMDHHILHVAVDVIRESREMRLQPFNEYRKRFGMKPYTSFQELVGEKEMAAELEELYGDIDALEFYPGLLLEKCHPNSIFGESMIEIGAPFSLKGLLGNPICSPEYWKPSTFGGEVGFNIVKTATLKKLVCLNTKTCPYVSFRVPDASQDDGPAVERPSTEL
Experimental: (§1) Cos-A2 cells stably transfected with human recombinant COX-1 or COX-2 are cultured in 96 well tissue culture plates with Dulbecco's Modified Eagle Medium supplemented with 10% fetal bovine serum, glutamine (2 mM), penicillin (50 U/mL), streptomycin ([…]) and geneticin (400 μg/mL). Media is removed from confluent monolayers and the cells are washed twice with Hank's buffered saline solution. Fresh HBSS is added, with or without inhibitor, and the cells are incubated for 30 minutes at 37° C. Arachidonic acid (30 μM) is then added and the cells are incubated for an additional one hour at 37° C. Individual experiments represent a mean of triplicate wells for control and inhibitor doses. Supernatents are removed and stored at -80° C. until assayed for PGE2 by EIA (Amersham).
(§2) The inhibitory activities against COX-1 and COX-2 of the compounds described in the above Synthetic Examples were determined using the two in vitro assays described above.

human recombinant COX-2 = molecular target: T2, human recombinant COX-2 (Homo sapiens, UniProt P35354); experiment: COX-2 inhibition, COS cell assay; type: cell-based; settings: for inhibition at 1 µM / inhibition at 10 µM / inhibition at 0.1 µM: COS, read-out: Inhibition of COX Enzymes in COS Cell Assays, COX-2 % inhibition; for IC50: COS cells, COX-2, read-out: Inhibition of COX Enzymes in COS Cell Assays, COX-2 IC50
T2 construct: expressed in transfected cells; host or cells: Cos-A2 cells, stably transfected
T2 sequence (P35354 18-604): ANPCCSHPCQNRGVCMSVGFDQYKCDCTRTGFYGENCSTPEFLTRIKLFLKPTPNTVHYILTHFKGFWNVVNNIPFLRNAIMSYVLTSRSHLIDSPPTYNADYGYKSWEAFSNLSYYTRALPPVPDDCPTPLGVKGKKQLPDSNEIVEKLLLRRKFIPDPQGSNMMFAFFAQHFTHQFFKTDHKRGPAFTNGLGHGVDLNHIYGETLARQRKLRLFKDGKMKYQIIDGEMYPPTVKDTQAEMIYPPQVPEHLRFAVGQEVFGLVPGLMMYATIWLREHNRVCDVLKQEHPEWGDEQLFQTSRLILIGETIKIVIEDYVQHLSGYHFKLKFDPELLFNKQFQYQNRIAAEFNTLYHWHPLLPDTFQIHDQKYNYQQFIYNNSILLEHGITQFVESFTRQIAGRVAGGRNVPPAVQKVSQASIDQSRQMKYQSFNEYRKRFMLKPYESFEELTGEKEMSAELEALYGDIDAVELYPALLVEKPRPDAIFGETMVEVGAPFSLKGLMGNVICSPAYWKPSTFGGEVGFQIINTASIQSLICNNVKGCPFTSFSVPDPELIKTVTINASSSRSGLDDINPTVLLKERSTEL
Experimental: as §1, §2

[1] = molecular target: Human cyclooxygenase 1 (COX-1) (Homo sapiens, UniProt P23219); experiment: COX-1 inhibition, microsomal assay; settings: 20 min, read-out: % Inhibition of COX Enzymes in Microsomal Assays, COX-1
Sequence of Human cyclooxygenase 1 (COX-1) (P23219 24-599): as the sequence (P23219 24-599) above
Experimental: (§3) Human cyclooxygenase 1 and 2 are expressed in a baculovirus expression system using High 5 insect cells. Microsomal fractions prepared from the cells are stored at -80° C. The assays are performed at room temperature in phosphate buffered saline. After incubating the COX-1 or COX-2 microsomes with hematin (2 μM), phenol (0.5 mM) and reduced glutathione (1 mM) for 5 minutes, inhibitor or DMSO vehicle is added and allowed to incubate for 20 minutes. Arachidonic acid (2 μM) is added and after 20 minutes the reaction is stopped by the addition of HCl (0.1 N HCl final concentration).
as §2

[2] = molecular target: T3, Human cyclooxygenase 2 (COX-2) (Homo sapiens, UniProt P35354); experiment: COX-2 inhibition, microsomal assay; settings: 20 min, read-out: % Inhibition of COX Enzymes in Microsomal Assays, COX-2
T3 sequence (P35354 18-604): T2 sequence (P35354 18-604)
Experimental: as §3, §2

[3] = tested on: Carrageenan-induced paw edema; experiment: Carrageenan-Induced Paw Edema in Rats; type: in vivo, rat; settings: oral, 10 mg/kg; *p < 0.05
Experimental: The antiinflammatory activities of two compounds in accordance with the invention (those of Examples 1 and 10) were determined in vivo and compared to those of the known antiinflammatory agents indomethacin and meloxicam, using the Carrageenan-Induced Paw Edema in Rats protocol described by C. A Winter et al. J. Pharmacol. Exp. Ther. 1963, 141, 369. Test compounds were administered orally.

CC(C)S(=O)(=O)C1C(=O)N(Cc2ccccc2F)C(=O)c2ccccc21 (stereo not shown) [Example 2, 2-(2-Fluorobenzyl)-4-(1-methylethyl)sulfonyl-4H-isoquinoline-1,3-dione]
inhibition at 1 µM (human recombinant COX-1; 1 μM): 33%
inhibition at 10 µM (human recombinant COX-1; 10 μM): 39%
inhibition at 1 µM (human recombinant COX-2): 45%
inhibition at 10 µM (human recombinant COX-2): 46%
inhibition at 0.1 µg/mL [1]: -1%
inhibition at 1 µg/mL [1]: 14%
inhibition at 10 µg/mL [1]: 18%
inhibition at 0.1 µg/mL [2]: 10%
inhibition at 1 µg/mL [2]: 37%
inhibition at 10 µg/mL [2]: 49%

CCCS(=O)(=O)C1C(=O)N(Cc2ccccc2)C(=O)c2ccccc21 (stereo not shown) [Example 3]
inhibition at 0.1 µg/mL [1]: -9%
inhibition at 1 µg/mL [1]: 22%
inhibition at 10 µg/mL [1]: 33%
inhibition at 0.1 µg/mL [2]: -6%
inhibition at 1 µg/mL [2]: 15%
inhibition at 10 µg/mL [2]: 27%

CCCCS(=O)(=O)C1C(=O)N(Cc2ccccc2)C(=O)c2ccccc21 (stereo not shown) [Example 4]
inhibition at 0.1 µg/mL [1]: 4%
inhibition at 1 µg/mL [1]: 15%
inhibition at 10 µg/mL [1]: 15%
inhibition at 0.1 µg/mL [2]: 0%
inhibition at 1 µg/mL [2]: 30%
inhibition at 10 µg/mL [2]: 20%

CC(C)S(=O)(=O)C1C(=O)N(Cc2ccccc2)C(=O)c2ccccc21 (stereo not shown) [Example 5]
inhibition at 0.1 µM (human recombinant COX-1): 13%
inhibition at 1 µM (human recombinant COX-1): 43%
inhibition at 10 µM (human recombinant COX-1): 74%
inhibition at 0.1 µM (human recombinant COX-2): 17%
inhibition at 1 µM (human recombinant COX-2): 37%
inhibition at 10 µM (human recombinant COX-2): 51%
inhibition at 0.1 µg/mL [1]: -6%
inhibition at 1 µg/mL [1]: 11%
inhibition at 10 µg/mL [1]: 23%
inhibition at 0.1 µg/mL [2]: 27%
inhibition at 1 µg/mL [2]: 56%
inhibition at 10 µg/mL [2]: 58%

CC(C)S(=O)(=O)C1C(=O)N(Cc2cccc(Cl)c2)C(=O)c2ccccc21 (stereo not shown) [Example 6]
inhibition at 0.1 µg/mL [1]: -10%
inhibition at 1 µg/mL [1]: 19%
inhibition at 10 µg/mL [1]: 30%
inhibition at 0.1 µg/mL [2]: 10%
inhibition at 1 µg/mL [2]: 27%
inhibition at 10 µg/mL [2]: 27%

CC(C)S(=O)(=O)C1C(=O)N(Cc2ccc(Cl)cc2)C(=O)c2ccccc21 (stereo not shown) [Example 7]
inhibition at 0.1 µM (human recombinant COX-1; 0.1 μM): 6%
inhibition at 1 µM (human recombinant COX-1; 1 μM): 46%
inhibition at 10 µM (human recombinant COX-1; 10 μM): 72%
inhibition at 0.1 µM (human recombinant COX-2): 26%
inhibition at 1 µM (human recombinant COX-2): 52%
inhibition at 10 µM (human recombinant COX-2): 74%
inhibition at 0.1 µg/mL [1]: -3%
inhibition at 1 µg/mL [1]: 4%
inhibition at 10 µg/mL [1]: 36%
inhibition at 0.1 µg/mL [2]: 3%
inhibition at 1 µg/mL [2]: 62%
inhibition at 10 µg/mL [2]: 67%

CC(C)S(=O)(=O)C1C(=O)N(Cc2ccc(F)cc2)C(=O)c2ccccc21 (stereo not shown) [Example 8]
IC50 (human recombinant COX-2): 90 nM
inhibition at 0.1 µg/mL [2]: -1%
inhibition at 1 µg/mL [2]: 68%
inhibition at 10 µg/mL [2]: 86%

CC(C)S(=O)(=O)C1C(=O)N(Cc2ccc(F)c(F)c2)C(=O)c2ccccc21 (stereo not shown) [Example 9]
IC50 (human recombinant COX-1; COS cells, COX-1, read-out: Inhibition of COX Enzymes in COS Cell Assays, COX-1 IC50): 570 nM
IC50 (human recombinant COX-2): 200 nM
inhibition at 0.1 µg/mL [1]: 10%
inhibition at 1 µg/mL [1]: 17%
inhibition at 10 µg/mL [1]: 57%
inhibition at 0.1 µg/mL [2]: 8%
inhibition at 1 µg/mL [2]: 75%
inhibition at 10 µg/mL [2]: 80%

O=C1c2ccccc2C(S(=O)(=O)CC(F)(F)F)C(=O)N1Cc1ccccc1 (stereo not shown) [Example 11]
inhibition at 1 µM (human recombinant COX-1; 1 μM): 0%
inhibition at 10 µM (human recombinant COX-1; 10 μM): 64%
IC50 (human recombinant COX-2): 64000 nM
inhibition at 1 µM (human recombinant COX-2): 0%
inhibition at 10 µM (human recombinant COX-2): 30%
inhibition at 0.1 µg/mL [1]: 4%
inhibition at 1 µg/mL [1]: 21%
inhibition at 10 µg/mL [1]: 50%
inhibition at 0.1 µg/mL [2]: 23%
inhibition at 1 µg/mL [2]: 32%
inhibition at 10 µg/mL [2]: 52%

O=C1c2ccccc2C(S(=O)(=O)c2ccccc2)C(=O)N1Cc1ccccc1 (stereo not shown) [Example 12]
inhibition at 0.1 µM (human recombinant COX-1; 0.1 μM): 22%
inhibition at 1 µM (human recombinant COX-1; 1 μM): 61%
inhibition at 10 µM (human recombinant COX-1; 10 μM): 85%
inhibition at 0.1 µg/mL [1]: 17%
inhibition at 1 µg/mL [1]: 59%
inhibition at 10 µg/mL [1]: 74%

O=C1c2ccccc2C(S(=O)(=O)c2ccc(Br)cc2)C(=O)N1Cc1ccccc1 (stereo not shown) [Example 13]
inhibition at 0.1 µg/mL [1]: 44%
inhibition at 1 µg/mL [1]: 74%
inhibition at 10 µg/mL [1]: 100%
inhibition at 0.1 µg/mL [2]: 28%
inhibition at 1 µg/mL [2]: 92%
inhibition at 10 µg/mL [2]: 100%

Cc1ccc(S(=O)(=O)C2C(=O)N(Cc3ccccc3)C(=O)c3ccccc32)cc1 (stereo not shown) [Example 14]
inhibition at 0.1 µg/mL [1]: 59%
inhibition at 1 µg/mL [1]: 93%
inhibition at 10 µg/mL [1]: 100%
inhibition at 0.1 µg/mL [2]: -13%
inhibition at 1 µg/mL [2]: 63%
inhibition at 10 µg/mL [2]: 100%

O=C1c2ccccc2C(S(=O)(=O)c2ccc3ccccc3c2)C(=O)N1Cc1ccccc1 (stereo not shown) [Example 15]
inhibition at 0.1 µg/mL [1]: 23%
inhibition at 1 µg/mL [1]: 24%
inhibition at 10 µg/mL [1]: 57%
inhibition at 0.1 µg/mL [2]: -29%
inhibition at 1 µg/mL [2]: 14%
inhibition at 10 µg/mL [2]: 34%

COc1ccc(S(=O)(=O)C2C(=O)N(Cc3ccccc3)C(=O)c3ccccc32)cc1 (stereo not shown) [Example 16]
inhibition at 0.1 µg/mL [1]: 33%
inhibition at 1 µg/mL [1]: 81%
inhibition at 10 µg/mL [1]: 93%
inhibition at 0.1 µg/mL [2]: 21%
inhibition at 1 µg/mL [2]: 74%
inhibition at 10 µg/mL [2]: 97%

CC(C)(C)c1ccc(S(=O)(=O)C2C(=O)N(Cc3ccccc3)C(=O)c3ccccc32)cc1 (stereo not shown) [Example 17]
inhibition at 0.1 µg/mL [1]: 17%
inhibition at 1 µg/mL [1]: 20%
inhibition at 10 µg/mL [1]: 45%
inhibition at 0.1 µg/mL [2]: 20%
inhibition at 1 µg/mL [2]: 12%
inhibition at 10 µg/mL [2]: 39%

O=C1c2ccccc2C(S(=O)(=O)c2ccc(F)cc2)C(=O)N1Cc1ccccc1 (stereo not shown) [Example 18]
inhibition at 0.1 µg/mL [1]: 48%
inhibition at 1 µg/mL [1]: 76%
inhibition at 10 µg/mL [1]: 92%
inhibition at 0.1 µg/mL [2]: 33%
inhibition at 1 µg/mL [2]: 66%
inhibition at 10 µg/mL [2]: 81%

O=C1c2ccccc2C(S(=O)(=O)c2ccc(Cl)cc2)C(=O)N1Cc1ccccc1 (stereo not shown) [Example 19]
inhibition at 0.1 µg/mL [1]: 52%
inhibition at 1 µg/mL [1]: 71%
inhibition at 10 µg/mL [1]: 89%
inhibition at 0.1 µg/mL [2]: 59%
inhibition at 1 µg/mL [2]: 89%
inhibition at 10 µg/mL [2]: 93%

O=C1c2ccccc2C(S(=O)(=O)c2ccc([N+](=O)[O-])cc2)C(=O)N1Cc1ccccc1 (stereo not shown) [Example 20]
inhibition at 0.1 µg/mL [1]: 21%
inhibition at 1 µg/mL [1]: 41%
inhibition at 10 µg/mL [1]: 62%
inhibition at 0.1 µg/mL [2]: 20%
inhibition at 1 µg/mL [2]: 37%
inhibition at 10 µg/mL [2]: 46%

O=C1c2ccccc2C(S(=O)(=O)c2cccs2)C(=O)N1Cc1ccccc1 (stereo not shown) [Example 21]
inhibition at 0.1 µM (human recombinant COX-1; 0.1 μM): 35%
inhibition at 1 µM (human recombinant COX-1; 1 μM): 67%
inhibition at 10 µM (human recombinant COX-1; 10 μM): 94%
inhibition at 0.1 µM (human recombinant COX-2): 65%
inhibition at 1 µM (human recombinant COX-2): 80%
inhibition at 10 µM (human recombinant COX-2): 89%
inhibition at 0.1 µg/mL [1]: 17%
inhibition at 1 µg/mL [1]: 14%
inhibition at 10 µg/mL [1]: 67%
inhibition at 0.1 µg/mL [2]: 12%
inhibition at 1 µg/mL [2]: 46%
inhibition at 10 µg/mL [2]: 48%

COc1ccc2c(c1)c(CC(=O)O)c(C)n2C(=O)c1ccc(Cl)cc1 [Indomethacin, reference compound]
Effect of Compounds in Carrageenen Paw Edema in Rats, % Inhibition [3]: 58%
